# Laboratory results from paper PMC4979516, “Quinazoline-based tricyclic compounds that regulate programmed cell death, induce neuronal differentiation, and are curative in animal models for excitotoxicity and hereditary brain disease” (Cell Death Discovery, 2015).
# Entries after “also recorded” stand apart in the source; their conditions may differ.
# B1: NGF: mouse NGF, 2.5S from Promega; classical agent to induce neuronal differentiation of PC12 cells (protein, UniProt P01139 122-241, looked up)
# Beta-nerve growth factor: SSTHPVFHMGEFSVCDSVSVWVGDKTTATDIKGKEVTVLAEVNINNSVFRQYFFETKCRASNPVESGCRGIDSKHWNSYCTTTHTFVKALTTDEKQAAWRFIRIDTACVCVLSRKATRRG
# Experiments:
# R6-2 mice = assay: R6-2 transgenic mouse model for Huntington disease (lifespan, behavior); format: in vivo; conditions: for Effect on behavior and lifespan of R6-2 mice: pilot studies, s.c. daily 5 days per week, MGV-1 15 mg/kg, PK 11195 15 mg/kg, MGV-2 15 and 7.5 mg/kg; for Week of age until which 50% of treated R6-2 mice were still alive: 7.5 mg/kg s.c. daily 5 days per week, vehicle: 11th week (2-Cl-MGV-1 study), 10th week (2-Cl-MGV-2 study); for Uncontrollable tremor activity of R6-2 mice: 7.5 mg/kg s.c., data not shown
# Excerpt: Huntington disease in humans is a hereditary disease including neurodegeneration leading to degradation in motor performance, continual involuntary movements, tremors, cardiovascular and respiratory impairments, and finally leading to death of the patients having the disease.[88] For this study, R6-2 mice (~120 CAG repeats B6CBA-Tg(HDexon1)62 Gpb/3J) mice were used as a transgenic mouse model for Huntington disease. For this purpose, mice obtained from the Jackson Laboratory were bred. In particular, males hemizygous for Tg(HDexon1)62 Gpb, and females from the wild-type background strain B6CBAF1/J, were bred according to the protocol of Jackson Laboratory.
# For tests of drug efficacy, male offspring hemizygous for Tg(HDexon1)62 Gpb were used to determine drug effect on lifespan, motor activity, and general well-being of the animals. Drug treatment for this study consisted of daily (5 continuous days per week) subcutaneous injections in the neck area of mice with 20 μl of: the drug vehicle DMSO (vehicle control), 2-Cl-MGV-1(7.5 mg/kg) and 2-Cl-MGV-2 (7.5 mg/kg). […] Quantities were used according to previous studies regarding TSPO ligands[48] and adapted depending on the findings in the course of the pilot studies. The treatments were given until the animals died a natural death. Behavioral experiments included distance covered in an open field apparatus,[89] freezing,[89] and balance on a rotor-rod.[90] Spontaneous tremor activity was evaluated using a Hamilton–Kinder sensor in a soundproof ventilated apparatus (Kinder Scientific). The assays for locomotor activity, tremors, and body weight were performed on a weekly basis, together with evaluation of the well-being of the mice. Finally, the day of death was noted. As lifespan data were most pronounced, these are presented in the present description of the results. No adverse effects of any of the drug treatments were noted, neither for specific tests, nor for general observations. Importantly, DMSO had no effect by itself as compared with naive mice or saline-injected mice with various behavioral assays.[20]
# PC12 cells = assay: Neuronal differentiation of PC12 cells, strain not specified; format: cell-based, rat; conditions: agent by itself; MGV-1 50 μM
# Description: For our newly developed differentiation method by MGV-1 in combination with glutamate, PC12 cells were plated onto poly-L-lysine coated culture plates and Petri dishes at a relatively low density (5.2×10^3 cells/cm^2 for six-well plates and 3.6×10^3 cells/cm^2 for Petri dishes), in DMEM medium containing 8% heat-inactivated FBS and 8% horse serum. […] Exposure to vehicle alone (culture medium with 1% of ethanol) was used as the control.
# The major and determining indication of neural differentiation of PC12 cells is neurite development.[23],[80] […] The number of differentiated cells was determined by visual examination of the captured fields. In particular, a line was drafted at half height of the image and the cell bodies crossed by the line were further analyzed regarding differentiation. […] Cells with at least one identifiable neurite with a length at least equal to the cell body diameter were scored, and their number expressed as a percentage of the total number of cells crossed by said line. In addition, for each of these cells, the length of the longest neurite was determined (using AxioVision Image software, Zeiss). […]
# U118MG cells [1] = assay: LDH cytotoxicity assay, glutamate-induced cell death of U118MG cells; conditions: for Lethal effects of the compound (LDH): compound 10-100 μM by itself or with 35 mM glutamate; for Protection against glutamate-induced cell death (LDH): 35 mM glutamate, compound 10-100 μM, 24 h pretreatment
# Description: (1) For U118MG cells, glutamate at a concentration of 35 mM was applied with or without MGV-1. As discussed, glutamate levels in normal healthy brain tissue can average 15 mM, and these levels can be doubled in diseased brain tissue, whereas in cell organelles glutamate levels can be as high as 250 mM (as discussed). […] In more detail, U118MG cells were seeded, 2×10^5 cells per well of 6-well plates and 6×10^3 cells per well of 96-well plates. Twenty-four hours after seeding, U118MG cells were pretreated with MGV-1 (or one of the other compounds) at various concentrations from 0.1 nM–100 μM. Twenty-four hours after the pretreatment, the cells were exposed to 35 mM of glutamate. […] The negative control was vehicle, that is, ethanol with a final concentration of 1%. […] The positive control was exposure to 35 mM of glutamate alone (with 200 μM of glycine).
# Wells of 96-well plates were with 6000 cells per well and treated according the protocol presented above. We used the Cytotoxicity Detection Kit (LDH) (Roche Pharmacuticals) according to the manufacturer’s instructions. When cell plasma membranes are damaged, the cytoplasmic enzyme LDH is released into the medium. The amount of formazan formed is proportional to the amount of LDH released.[77] The resulting color intensity is proportional to the number of damaged cells. Absorbance at 492 nm with reference at 690 nm was measured with the Spectrophotometer Zenyth 200 (Anthos) and the results were calculated and normalized according to the formula presented by the manufacturer.
# [2] = target: T1, 18 kDa translocator protein (TSPO) (Rattus norvegicus, UniProt P16257); assay: TSPO binding, displacement of [3H]PK 11195 in rat kidney membranes
# T1 construct: 400 μl of homogenized rat kidney membranes (5 mg of homogenate/ml); from tissue; host or cells: rat kidney (homogenized membranes)
# T1 sequence (P16257 whole entry): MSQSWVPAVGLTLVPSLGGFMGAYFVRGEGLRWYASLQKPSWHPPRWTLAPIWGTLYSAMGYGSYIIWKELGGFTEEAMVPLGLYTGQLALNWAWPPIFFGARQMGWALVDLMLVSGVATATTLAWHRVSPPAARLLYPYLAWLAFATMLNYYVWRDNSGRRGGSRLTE
# Description: After incubation for 60 min at 4 °C, samples were filtered under vacuum over Whatman GF/C filters and washed three times with 5 ml of 50 mM Tris-HCl buffer, pH 7.4. The filters were incubated in CytoScint (MP Biomedicals) and radioactivity was measured after 12 h with a 1600 CA Tri-Carb liquid scintillation analyzer (Packard). Inhibitory constant (Ki) values were calculated by the equation Ki=IC50/(1+C/Kd), where C=[^3H]
# [3] = tested on: PC12 cells strain #1 (polygonal cells); assay: Neuronal differentiation (neurite sprouting) of PC12 strain #1; format: cell-based, rat; conditions: strain #1, only polygonal cells
# [4] = tested on: NeuN expression in PC12 cells strain #3; assay: Western blot of NeuN in PC12 strain #3; format: cell-based, rat; conditions: PC12 strain #3, versus vehicle control
# Description: The relative protein levels of TSPO and other proteins related to neurodifferentiation (including β-actin, NeuN, tubulin-3β), were assayed by immunoblotting with the aid electrophoresis through 12% SDS-polyacrylamide gel, according to previously described methods.[71] A priori, general protein levels were measured by the method of Bradford using BSA as a standard.[75] After electrophoresis, the gels were subjected to electrophoretic transfer to nitrocellulose membranes. Then, the membranes were blocked for 1 h in 5% non-fat milk in 62.5 mM sodium phosphate buffer, pH 7.4, containing 100 mM NaCl, and 0.1% (v/v) Tween-20 (PBS-T) and then incubated for 2 h or overnight at 4 °C with the appropriate antibodies: anti-tubulin-3β 1 : 10 000, anti-NeuN 1 : 1000, anti β-actin 1 : 15 000, and anti-TSPO 1 : 10 000.[73] After washing with TBS-T, the membranes were incubated with IgG secondary antibody linked to horseradish peroxidase (anti-rabbit IgG 1 : 20 000, anti-mouse IgG 1 : 10 000, as appropriate, from Jackson Immunologicals, West Grove, PA, USA) in TBS-T at room temperature. Binding of antibodies to the membrane was detected with the EZ-ECL-detection reagent (Biological Industries), using the ImageQuant LAS 4010 apparatus and Totallab Quant quantitative image analysis of Totallab (Newcastle upon Tyne, England).
# U118MG cells [5] = assay: Mitochondrial membrane potential (JC-1) assay in U118MG cells exposed to glutamate; format: cell-based, human; conditions: 25 μM compound, 35 mM glutamate
# Excerpt: JC-1 was used to assay changes in Δψm, as described previously.[71],[79] Owing to charges distributed along JC-1 molecules, they pass unimpaired (charged) mitochondrial membranes and enter the mitochondrial matrix. There the J-molecules form J-aggregates, which emit at 590 nm (orange–red fluorescence). […] The monomers emit at 527 nm (green fluorescence). A decrease in the red–green fluorescence intensity ratio is an indication for mitochondrial depolarization. As a positive control, the proton ionophore carbonyl cyanide m-chlorophenylhydrazone was used as described previously.[71] Cells were collected and prepared for suspension in 10 μg/ml of JC-1 solution in PBS. After incubation at 37 °C for 30 min in the dark, the cells were washed with 0.5 ml of PBS, and the cell suspensions were analyzed with the BD FACSCalibur flow cytometer.
# U118MG cells [6] = assay: Mitochondrial ROS / cardiolipin oxidation (NAO) assay in U118MG cells exposed to glutamate; format: cell-based, human; conditions: 25 μM compound, 35 mM glutamate
# Excerpt: Cardiolipin is present in the inner mitochondrial membrane, at the contact sites with the outer mitochondrial membrane. By application of NAO, we assayed cardiolipin peroxidation as an indication of mitochondrial ROS generation, as described previously.[71] NAO binds with high affinity to non-oxidized cardiolipin in a 2 : 1 ratio, but with less affinity to oxidized cardiolipin, the latter which is reflected by lower levels of green NAO fluorescence.[78] For our study, cells were collected and centrifuged at 1200×g for 5 min, 4 °C. Cell pellets were re-suspended in 0.5 ml of 0.1 μM NAO and incubated for 30 min at 37 °C in the dark. Then, the cells were washed once with 0.5 ml PBS and transferred into 5 ml FALCON FACS tubes and analyzed with the aid of a BD FACSCalibur flow cytometer using CellQuest software (BD Biosciences, Franklin Lakes, NJ, USA).
Molecule,Lethal effects of the compound (LDH) (U118MG cells [1]),Ki [2] [nM],Protection against glutamate-induced cell death (LDH) (U118MG cells [1]),also measured
"CCC(C)N(C)C(=O)c1cc2ccccc2c(-c2ccccc2Cl)n1 (centres unmarked) [PK 11195, N-butan-2-yl-1-(2-chlorophenyl)-N-methylisoquinoline-3-carboxamide, reference compound]",,,,Effect on behavior and lifespan of R6-2 mice (R6-2 mice): did not show such effects; Neuronal differentiation of PC12 cells (neurite outgrowth) (PC12 cells): can differentiate PC12 cells
"CN(C)C(=O)Oc1nc(-c2ccccc2Cl)nc2ccccc12 [2-Cl-MGV-1, 2-(2-chlorophenyl)quinazolin-4-yl dimethylcarbamate]",very little lethality by itself at any concentration; also recorded: shows the least lethal effects when applied just by itself,825 ± 315,,Week of age until which 50% of treated R6-2 mice were still alive (R6-2 mice): 12 week; Uncontrollable tremor activity of R6-2 mice (R6-2 mice): reduction of uncontrollable tremor activity
"CCN(C)C(=O)Oc1nc(-c2ccccc2Cl)nc2ccccc12 [2-Cl-MGV-2, 2-(2-chlorophenyl)quinazolin-4-yl ethyl(methyl)carbamate]",undesired lethal effect at high concentrations when given just by itself,80 ± 11,protects excellently; also recorded: very effective in protecting against glutamate-induced cell death,Week of age until which 50% of treated R6-2 mice were still alive (R6-2 mice): 12 week; Uncontrollable tremor activity of R6-2 mice (R6-2 mice): reduction of uncontrollable tremor activity
"CCN(CC)C(=O)Oc1nc(-c2ccccc2)nc2ccccc12 [MGV-3, 2-phenylquinazolin-4-yl diethylcarbamate]",undesired lethal effects at high concentrations (in particular 100 μM),2.6 ± 1,protect against lethal effects of glutamate; also recorded: already quite effective at 10 μM,
"CCN(CC)C(=O)Oc1nc(-c2ccccc2Cl)nc2ccccc12 [2-Cl-MGV-3, 2-(2-chlorophenyl)quinazolin-4-yl diethylcarbamate]",undesired lethal effects at 50 and 100 μM both with and without glutamate exposure,2.6 ± 1,,
"N[C@@H](CCC(=O)O)C(=O)O [Glu, Glutamate, reference compound]",,,,Differentiation of PC12 strain #1 by the agent by itself [3]: do not have this effect; Increase of NeuN expression (western blot) [4]: do not enhance NeuN expression significantly
"CCN(C)C(=O)Oc1nc(-c2ccccc2)nc2ccccc12 [MGV-2, 2-phenylquinazolin-4-yl ethyl(methyl)carbamate]",undesired lethal effects at high concentrations (in particular 100 μM),80 ± 11,protect against lethal effects of glutamate; also recorded: already quite effective at 10 μM,"Effect on behavior and lifespan of R6-2 mice (R6-2 mice): effects reminiscent of those of 2-Cl-MGV-1 and 2-Cl-MGV-2, but less consistent; Prevention of collapse of the ΔΨm induced by glutamate (JC-1) (U118MG cells [5]): prevention of the collapse of the ΔΨm; Prevention of cardiolipin oxidation / mitochondrial ROS generation induced by glutamate (NAO) (U118MG cells [6]): prevent cardiolipin oxidation"
B1,,,,Differentiation of PC12 strain #1 by the agent by itself [3]: do not have this effect; Increase of NeuN expression (western blot) [4]: do not enhance NeuN expression significantly
